Results: patent US11446265B2, “Reagents, compositions and methods for improving viability and function of cells, tissues and organs” (TARGA BIOMEDICAL, priority 2016, dated 2022)

Tests used:
[1] = system: human mesenchymal stem cells (hMSC); assay: mRNA expression in hMSC by real-time PCR; assay type: cell-based; details: FIGS. 25A, 25B, 26A to 26D
Text: FIG. 25A is a table representing mRNA expression of selected genes measured by real-time PCR in human mesenchymal stem cells (hMSC) conditioned with Celastrol alone or in combination with selected adjunct agents. Results are expressed as fold change versus Vehicle-treated cells.
FIG. 25B is a table representing mRNA expression of selected genes measured by real-time PCR in human mesenchymal stem cells (hMSC) conditioned with selected Celastrol analogs alone or in combination with selected adjunct agents. Results are expressed as fold change versus Vehicle-treated cells.
Results are expressed as fold change versus Vehicle-treated cells. (Arbitrary angiogenic index: (VEGFa+FGF2+SDF1)*2) (A=Additive effect; S=Synergistic effect).
(§1) To test the second main condition, MSCs were treated with the candidate pharmaco-optimizers for 1 hour, followed by 3 hours washout period. Cell mRNA was extracted and expression of genes of interest was quantified by real time PCR. In additional MSC cultures, cells were treated for one hour, washed and cultured in low serum media for 24 hours. The media containing paracrine factors secreted by MSCs was then placed in contact with H9c2 cardiomyoblast cell line. H9c2 cells were then submitted to the hypoxia/serum starvation (<1% O2 in hypoxia chamber in low serum media for 48 hours) or oxidative stress (incubation in media for 1 hour spiked with 0-1 mM H2O2). Viability status of H9c2 cells was evaluated using the LIVE/DEAD assay as detailed above.

H9c2 cardiomyoblasts [2] = assay: H9c2 viability under hypoxia/serum starvation (LIVE/DEAD); assay type: cell-based, rat; details: 1 uM
Procedure: For survival to hypoxic challenge and oxidative challenge, H9c2 cardiomyoblasts are submitted to the hypoxia/serum starvation (<1% O2 in hypoxia chamber in low serum media for 48 hours) or oxidative stress (incubation in media for 1 hour spiked with 0-1 mM H2O2). Viability status of H9c2 cells was evaluated using the LIVE/DEAD assay.

H9c2 cardiomyoblasts [3] = assay: H9c2 viability under hypoxia/reoxygenation stress; assay type: cell-based, rat; details: 1 uM
Procedure: Next, the hypoxia/reoxygenation challenge is performed. Briefly, viability analysis was performed in rat H9c2 cardiomyoblasts as previously reported. For hypoxia/reoxygenation stress, cells were cultured in DMEM no glucose (Life Technologies), serum starved and placed in hypoxic conditions (<1% O2) for 18 h. At reoxygenation (normoxic conditions), cells were treated with Celastrol (10^−10 to 10^−6 mol/L, Cayman Chemical, Ann Arbor, Mich.), Celastrol analogs or vehicle (Dimethyl sulfoxide (DMSO), Sigma-Aldrich Canada, Oakville, ON; final concentration<1% v/v) in DMEM high glucose 1% FBS for 1 h, then reoxygenation was continued in DMEM high glucose for an additional 5 h.

isolated perfused heart = system: isolated perfused heart; set-up: species or system rat
[4] = Rat myocardial ischemia/reperfusion in vivo, echocardiography at 24 h; details: 1 mg/Kg intraventricular, vs Vehicle
Procedure: Rats were randomly assigned to the following groups: Sham (n=6), Vehicle (n=8), Celastrol 1 mg/Kg (n=6) or Celastrol analogs. Under 2% isoflurane anesthesia, baseline echocardiography using a Sonos 5500 Imaging System (Philips, Philips Healthcare, Andover, Mass., USA) with a 12 MHz transducer was performed as described^12. All measures were acquired by the same experienced observer, blinded to the treatment. For each measurement, three to five cardiac cycles were analysed and averaged.
After echocardiography, the animal was intubated and mechanically ventilated, then bupivacaine 2 mg/kg was injected, and a left thoracotomy was performed, exposing the heart. Using a 5-0 silk slipknot, an occlusion of the left anterior descending coronary artery was performed. Visual blanching and electrocardiographic changes confirmed myocardial ischemia. In Sham animals, suture was not ligated. After 30 minutes, the suture occlusion was released. Celastrol, Celastrol analogs or vehicle was injected intraventricularly for acute systemic delivery, then the chest was closed. Buprenorfine (0.05 mg/Kg sc) and carprofen (5 mg/Kg sc) were injected at the end of surgery. Animals were left to recuperate for 24 h, then a second echocardiography was performed. Animals were sacrificed, cardiac tissue was snap frozen, and blood was collected in heparinized tubes, then centrifuged at 4° C. Plasma was collected, snap frozen and kept at −80° C. until analysis.

[5] = system: heat shock response (HSR); assay: Heat shock response luciferase reporter assay in H9c2; assay type: cell-based, rat; details: H9c2, 10E-5 to 10E-10M, 4 hours, 3 hours washout
Procedure: (§2) H9c2 rat cardiomyoblasts were seeded at a density of 5,000 cells per well in 96 well plates in DMEM 10% FBS complete medium and transfected using lipofectamine with the Cignal Reporter Assay Heat shock response and Antioxidant response kits (SABiosciences, Qiagen) according to the manufacturers' protocol.

[6] = system: antioxidant responsive elements (ARE); assay: Antioxidant response luciferase reporter assay in H9c2; assay type: cell-based, rat; details: H9c2, 10E-5 to 10E-10M, 4 hours, 3 hours washout
Procedure: as §2

human MSCs = assay: Screen of compounds for viability of human MSCs under hypoxic stress; assay type: cell-based; details: FIG. 1
Procedure: In an attempt to identify conditioning compounds that are able to ensure in vivo cellular viability, based on preliminary evidence using Celastrol, over a dozen compounds with structural similarities identified through literature and the Sigma-Aldrich® Structure Search online tool, were screened. The compounds' capacity to improve viability of human MSCs challenged to hypoxic stress was measured. The molecules that were screened, most of which are natural compounds, can be classified as triterpenoids, limonoids, withanolides, sterols, isoprenoides/ diterpenes and flavonoids. Classical HSP90 inhibitors were also added to the screen, such as Radicicol that directly target the ATP binding pocket at the NT region of HSP90^9 (NT inhibitor). […] 28; 42(2):260-6.^10Patwardhan C. A. et al., J Biol Chem. 2013 Mar. 8; 288(10):7313-25.^11Sreeramulu S. et al., Angew Chem Int Ed Engl. 2009; 48(32):5853-5.^12Gu M., et al. Invest New Drugs. 2014 Feb.;32(1):68-74.

[7] = system: rat mesenchymal stem cells (rMSC); assay: rMSC viability after hypoxia/serum starvation (LIVE/DEAD); assay type: cell-based; details: 1-hour treatment, compound alone
Procedure: (§3) To test the first main condition, MSCs (either sourced from rat or humans) were treated with the candidate pharmaco-optimizers, washed and submitted to hypoxia/serum starvation (<1% O2 in hypoxia chamber in low serum media for 48-72 hours) or oxidative stress (incubation in media for 1 hour spiked with 0-2 mM H2O2), which mimic the major lethal stressors present in the ischemic transplant microenvironment. Viability status of cells are assessed using the LIVE/DEAD viability/cytotoxicity kit (Life Technologies™) and results are quantified by Operetta high content screening (HCS) apparatus equipped with Harmony automated analysis software (Perkin Elmer™).

[8] = system: H9c2 cardiomyoblast cell line; assay: H9c2 viability in hypoxia after pre-conditioning with media from treated rMSC (paracrine); assay type: cell-based, rat; details: 48-hour pre-conditioning with media from treated rMSC; Gedunin high dose
Procedure: as §1

[9] = system: rat mesenchymal stem cells (rMSC); assay: rMSC viability after oxidative stress (H2O2, LIVE/DEAD); assay type: cell-based; details: 1-hour treatment, compound alone
Procedure: as §3

H9c2 cells = assay: H9c2 viability in oxidative stress after pre-conditioning with media from treated rMSC (paracrine); assay type: cell-based, rat; details: 24-hour preconditioning with media from treated rMSC
Procedure: as §1

[10] = system: rat mesenchymal stem cells (rMSC); assay: mRNA expression in rMSC by real time PCR; assay type: cell-based; details: rMSC, 1-hour treatment and 3-hour washout, co-treatment with EGCG or tBHQ
Procedure: as §1
Combination Treatments Tested—First Experiment: Celastrol (1 μM) or Gedunin (1 μM)+EGCG (1 μM, 10 μM) or TBHQ (1 μM, 5 μM)

[11] = 10^−8 mol/L dose, vs Vehicle (DMSO)

Structure (SMILES)	ranking as HSP90 inhibitor from expression of HSPs, growth factors, antioxidant proteins/enzymes, cytokines, matrix remodeling proteins [1]	protection of H9c2 cardiomyoblasts from hypoxia (H9c2 cardiomyoblasts [2])	protection of H9c2 cardiomyoblasts from hypoxia/reoxygenation stress (H9c2 cardiomyoblasts [3])	infarct area measured by TTC stain (isolated perfused heart)	Coronary reserve flow (CRF) (isolated perfused heart; [11])	I/R-induced systolic dysfunction (+/−dP/dt, generated pressure, EDP, contractility index) (isolated perfused heart; [11])	high sensitivity troponin T (TNT-hs) release (isolated perfused heart; [11])	cardiac output (CO) following I/R injury [4]	ejection fraction (EF) following I/R injury [4]	fractional shortening (FS) following I/R injury [4]	stroke volume (SV) following I/R injury [4]	stimulation of reporter gene controlled by heat shock responsive elements (HSR) [5]	stimulation of reporter gene controlled by antioxidant responsive elements (ARE) [6]	capacity to improve viability of human MSCs challenged to hypoxic stress (human MSCs)	protection of rMSCs from 48-hour hypoxia induced cell death [7]	protection of H9c2 from 48-hour hypoxia-induced cell death (paracrine) [8]	protection of rMSCs from oxidative stress induced death [9]	protection of H9c2 cells from oxidative stress induced death (paracrine) (H9c2 cells)	IL-1β mRNA expression induced by EGCG and tBHQ [10]
CC1=C(O)C(=O)C=C2C1=CC=C1[C@@]2(C)CC[C@@]2(C)[C@@H]3C[C@](C)(C(N)=O)CC[C@]3(C)CC[C@]12C [Analog 1]	best HSP90 inhibitors	effective	effective	significantly reduced	preserved	protected the heart from I/R-induced systolic dysfunction	significantly reduced	preserving	preserving	preserving	preserving	among the most potent and efficient compounds tested	among the most potent and efficient compounds tested	–	–	–	–	–	–
CC(=O)O[C@@H]1C[C@H]2C(C)(C)C(=O)C=C[C@]2(C)[C@H]2CC[C@@]3(C)[C@H](c4ccoc4)OC(=O)[C@H]4O[C@]43[C@@]21C [Gedunin]	–	–	–	–	–	–	–	–	–	–	–	–	–	top scoring	protect	protects	protect treated cells from oxidative stress-induced death	protects	downregulate
C[C@@H]1C[C@H]2O[C@@H]2/C=C\C=C\C(=O)Cc2c(Cl)c(O)cc(O)c2C(=O)O1 [Radicicol]	–	–	–	–	–	–	–	–	–	–	–	–	–	–	protect	does not produce a mediator for paracrine efficacy	not	no protection	–
